Entries after “also recorded” stand apart in the source; their conditions may differ. Read-outs that look alike come from different tables or passages of the source.
Columns and labels:
[1] = for Metabolization percentage, day 4 to 5: quantity in whole bees vs intake during the last 24 h of feeding
Text: (§1) Honey bees (A. mellifera L) were collected from brood frames in the apiary of Aarhus University, Flakkebjerg. The collected bees were fed on 50% sucrose for 3 days. On day 3, the bees were divided into eight experimental groups placed in feeding cages (N = 49–73). The exact numbers of bees in the individual cages were counted at the end of the experiment. A portion of bees were also collected for the analysis of the presence of the compounds prior to the experiment. Thus, these bees served as a negative control group. The feeding boxes were placed in incubators in complete darkness under the following conditions: 34 °C; 38–40% relative humidity. Information about plants known to produce the phytochemicals fed to the honey bees is included in the Supporting Information (Table S1). The prepared solutions were placed in 1.5 mL Eppendorf tubes, and the bottom of the tubes was pierced with a sterilized needle to allow the bees to feed on the solution. The feeding solutions were replaced every 24 h to prevent compound degradation and measure food intake. Dead bees were counted and removed daily. On day 5, the feeding containers were removed, and 2 h later, the bees were anesthetized with CO2 and killed by freezing.
Twelve individual bees from each of the experimental groups were rinsed with water and placed individually in 1.5 mL Eppendorf tubes. The bees were then lyophilized and transferred individually to Falcon tubes for extraction. […] The extraction solvents were added, and the bees were extracted by shaking using an Intelli-Mixer for 1 h (60 rpm). […] After extraction, the samples were centrifuged (12 min, 4 °C, 4500 rpm). […] Extracts of bees fed on triptolide were further purified by solid phase extraction (SPE) using a protocol modified from Wang et al.[30] One milliliter of the methanol extracts was diluted to 10 mL with Milli-Q water, 100 μL of formic acid was added, and the diluted extracts were loaded onto 30 mg Oasis HLB prime SPE (Waters, Hedehusene, Denmark) cartridges without prior column conditioning. The SPE cartridges were first washed with 1 mL of 2% ammonium hydroxide in 1:9 methanol/water and then with 1 mL of 2% acetic acid in 3:7 methanol/water, and triptolide was eluted from the cartridges with 1 mL of 4:1 methanol/water. Prior to HPLC-MS/MS analyses, 225 μL of the SPE eluates was diluted with 275 μL of 5 mM ammonium formate and filtered using a syringe filter (Kinesis KX PTFE syringe filter 13 mm, 0.22 μm, Mikrolab, Aarhus, Denmark).
(§2) Prior to the analysis, the compound-dependent mass spectrometer parameters of the eight compounds were optimized by infusion. For each compound, two MRM transitions were monitored (Table 2); one transition was used for quantification, whereas the other was used as a qualifier MRM to ensure correct identification.
(§3) The compounds were separated on a Synergy Fusion column (150 mm × 2 mm, 4 μm; Phenomenex, Værløse, Denmark) with a flow rate of 0.4 mL/min, and the gradient was as follows: 0–2 min: 100% A; 2–18 min: 100–30% A; 18–19 min: 30–0% A; 19–22 min: 0% A; 22–23 min: 0–100% A and 23–30 min: 100% A. Source parameters were as follows: curtain gas (CUR), 45 psi; collision gas (CAD), medium; temperature (TEM), 400 °C; ion source gas 1 (GS 1), 90 psi; ion source gas 2 (GS 2), 30 psi; and ionspray voltage (IS), 4200 V. Amygdalin was analyzed using the same source parameters and chromatographic method as described above, but in negative mode. […] The column was a Hypersil BDS C18 (250 mm × 2.1 mm, 5 μm; Thermo Fisher, Hvidovre, Denmark), and the solvent system consisted of 5 mM ammonium formate (A) and methanol (B). […] An injection volume of 30 μL was used for the triptolide analyses, whereas 20 and 30 μL were injected for the remaining compounds for whole and dissected bees, respectively.

in vivo = conditions: for Bee without gut %: percentage of total quantity recovered in the dissected bee found in the bee without gut; for Bee without gut % / Gut %: N = 6; for Gut %: percentage of total quantity recovered in the dissected bee found in the gut
Text: as §1
Six bees from each of the experimental groups were defrosted and rinsed with water, and their heads were removed with a scalpel to cut the esophagus. The complete alimentary canal (hereafter “gut”) was removed by grabbing the stinger with tweezers and gently pulling until the alimentary canal was released.[31] The two samples consisting of the gut and the rest of the bee without the gut (head, thorax, and abdomen; hereafter, “bee without gut”) were lyophilized separately in 1.5 mL Eppendorf tubes. Upon drying, the samples comprising the bees without guts were transferred to the extraction Falcon tubes, pulverized, and extracted as described above for the whole bees. Samples comprising the guts were instead pulverized directly in the 1.5 mL Eppendorf tubes by adding two metal beads and placing these tubes in the Geno/Grinder using a modified rack. Because of the small sample size, the pulverized guts were then gradually transferred to the extraction Falcon tubes using the extraction solvents to flush the material from the Eppendorf tubes. The remaining parts of the extraction followed the protocols described above for whole bees.
as §2, §3
In the individual dissected bees (N = 6), the sum of the quantities recovered in the guts and the bees without guts designates the total quantity of compound recovered in that individual.

Crithidia bombi = conditions: bumble bees; cited from earlier work
[2] = test system: honey bee memory retrieval; conditions: cited from earlier work
honey bees = conditions: cited from earlier work
[3] = test system: honey bee immune functions (antimicrobial peptide hymenoptaecin); design: method as in PMID 28981688; conditions: cited from earlier work
[4] = comparison between the eight phytochemicals, P < 0.05
[5] = whole bees N = 12, sampled day 5, 2 h after feeding was terminated, ± SD
[6] = dissected bees N = 6, day 5, ± SD
[7] = in vivo, po, oral bioavailability (%), percentage of the total ingested quantity over the 5-day feeding period recovered in the bees without guts, ± SD, dissected bees N = 6
[8] = percentage of the total ingested quantity over the 5-day feeding period recovered in the bees without guts, ± SD, dissected bees N = 6
[9] = honey bee (Apis mellifera), in vivo
[10] = honey bee (Apis mellifera), in vivo, po, oral bioavailability (%), percentage of the total ingested quantity over the 5-day feeding period recovered in the bees without guts, ± SD, dissected bees N = 6

| Structure (SMILES) | Relative metabolization rate [1, 4] | Mean concentration (ng/bee) in whole bees [1, 5] [ng/bee] | Bee without gut (ng/bee) (in vivo; [6]) | Gut (ng/bee) (in vivo; [6]) | oral bioavailability (%) (in vivo; [8]) | Bee without gut % (in vivo; ± SD) [%] | Gut % (in vivo; ± SD) [%] | bioavailability (in vivo; [7]) [%] | also measured |
| --- | --- | --- | --- | --- | --- | --- | --- | --- | --- |
| C=C[C@]12CN(C)[C@@H]3[C@H]4CO[C@H](C[C@H]41)[C@]1(C(=O)Nc4ccccc41)[C@@H]32 [gelsemine, Gelsemine] | metabolized significantly faster | 508 ± 174 | 461 ± 415 | 106 ± 67 | 6.1 ± 5.5 | 71 ± 32 | 30 | – | bioavailability at 5 day (in vivo; [7]): 6%; Gut % (in vivo; ± SD, listed as Gelsemine): 30 ± 32%; Effect on levels of the bumble bee gut protozoan Crithidia bombi (Crithidia bombi): significantly decreased the levels |
| CN1[C@@H]2CC[C@H]1C[C@@H](OC(=O)C(CO)c1ccccc1)C2 (stereo partly shown) [atropine, Atropine, reference compound] | – | 236 ± 76 | 89 ± 65 | 90 ± 17 | – | 46 ± 15 | 54 ± 15 | – | Consumed concentration that can impair honey bee memory retrieval [2]: above 10^–2 M |
| CCN1C[C@]2(COC(=O)c3ccccc3N3C(=O)C[C@H](C)C3=O)CC[C@H](OC)[C@@]34[C@@H]5C[C@H]6[C@H](OC)[C@@H]5[C@](O)(C[C@@H]6OC)[C@@](O)([C@@H](OC)[C@H]23)[C@@H]14 [methyllycaconitine, Methyllycaconitine] | metabolized significantly faster | 0.3 ± 0.2 | 0.2 ± 0.1 | 0.05 ± 0.03 | – | 81 ± 13 | 19 ± 13 | < 10 | – |
| C/C=C1/C[C@@H](C)[C@@](C)(O)C(=O)OCC2=CCN3CC[C@@H](OC1=O)[C@@H]23 [senecionine, Senecionine] | – | – | – | – | – | – | – | – | Mean concentration (ng/bee) in whole bees [1, 9]: 4.9 ± 1.6 ng/bee; Relative metabolization rate ([1]; in vivo): metabolized significantly faster; Bee without gut (ng/bee) (in vivo; [9]): 3.4 ± 2.2 ng/bee; Gut (ng/bee) (in vivo; [9]): 2.3 ± 1.3 ng/bee; bioavailability (in vivo; honey bee (Apis mellifera), in vivo, po, oral bioavailability (%)): < 10%; bioavailability (in vivo; in vivo, po, oral bioavailability (%)): 4 ± 2.6% |
| CC(C)[C@]12O[C@H]1[C@@H]1O[C@]13[C@]1(O[C@H]1C[C@H]1C4=C(CC[C@@]13C)C(=O)OC4)[C@@H]2O [triptolide, Triptolide] | metabolized significantly slower | 4.4 ± 2.8 | 3.1 ± 1.5 | 0.6 ± 0.2 | 20.6 ± 9.9 | 79 ± 11 | 21 ± 11 | 21 | Metabolization percentage, day 4 to 5 [1]: significantly lower; also recorded: negative metabolization percentages; Metabolization percentage, day 1 to 5 ([1]; quantity in whole bees vs total intake over the 5-day feeding period, day 5, 2 h after feeding was terminated): significantly lower |
| N#C[C@H](O[C@@H]1O[C@H](CO[C@@H]2O[C@H](CO)[C@@H](O)[C@H](O)[C@H]2O)[C@@H](O)[C@H](O)[C@H]1O)c1ccccc1 [amygdalin, Amygdalin] | metabolized significantly faster | 238 ± 218 | 833 ± 511 | 78 ± 34 | – | 90 ± 5 | 11 | 31 ± 19 | LD50 (honey bees): 0.003% |
| OCC1=C[C@@H](O)[C@@H]2C=CO[C@@H](O[C@@H]3O[C@H](CO)[C@@H](O)[C@H](O)[C@H]3O)[C@H]12 [aucubin, Aucubin] | metabolized significantly slower | 16400 ± 5640 | – | – | – | – | – | 13.1 ± 3.8 | Metabolization percentage, day 4 to 5 [1]: significantly lower; also recorded: negative metabolization percentages; bioavailability (in vivo; [10]): 13%; Effect on expression of the antimicrobial peptide hymenoptaecin ([3]; aucubin feeding): significantly increased the expression; Effect on honey bee immune functions [3]: significantly stimulated honey bee immune functions; Effect on levels of the bumble bee gut protozoan Crithidia bombi (Crithidia bombi): significantly decreased the levels |
| C/C=C1/C[C@@H](C)[C@@](C)(O)C(=O)OC/C2=C/CN(C)CC[C@@H](OC1=O)C2=O [senkirkine, Senkirkine] | metabolized significantly faster | 7.4 ± 3.5 | 7.0 ± 4.9 | 2.3 ± 3.0 | 8.9 ± 6.3 | 73 ± 28 | 27 | 9 | bioavailability (in vivo; [10]): < 10% |

Reference: article PMC7884015 (Journal of Agricultural and Food Chemistry, 2021)
